Test results taken from patent publication US10442800B2, “Crystal forms of NBI-98854, preparation method and use thereof” (Crystal Pharmaceutical (Suzhou) Co., Ltd., priority 2016, dated 2019).

What was measured:
Format in all cases: physicochemical
[1] = Hygroscopicity experiment by Dynamic Vapor Sorption (DVS); conditions: 25° C.; for hygroscopicity class: Chinese Pharmacopoeia 2015 definition, 80% RH; for weight gain: DVS, at 80% RH
Description: Dynamic Vapor Sorption (DVS) is measured via a SMS (Surface Measurement Systems Ltd.) intrinsic DVS. Its control software is DVS-Intrinsic control software, and its analysis software is DVS-Intrinsic analysis software. Typical Parameters for DVS test are as follows:
Gas and flow rate: N2, 200 mL/min
RH range: 0% RH to 95% RH
14.3 mg of Form CS1 was placed in a DVS instrument and underwent a cycle of 0%-95%-0% RH. The DVS curve is substantially as depicted in FIG. 12. A weight gain of 0.08% is observed at 80% RH.
8.6 mg of Form CS2 was placed in a DVS instrument and underwent a cycle of 40%-95%-0%-95% RH. A weight gain of 0.56% is observed at 80% RH.

[2] = Stability assessment under storage (XRPD for crystalline form, HPLC for chemical purity); conditions: for stability (overall conclusion): 25° C./60% RH and 40° C./75% RH for 1 month; for Purity / Initial purity: HPLC; for Initial purity: initial sample before storage; for Crystalline form: XRPD
Text: X-ray powder diffraction pattern in the present disclosure was acquired by a Panalytical Empyrean X-ray powder diffractometer. The parameters of the X-ray powder diffraction method of the present disclosure were as follows:
High Performance Liquid Chromatography (HPLC) data in the present disclosure are collected from Agilent 1100 with diode array detector (DAD). The HPLC method parameters for purity test in the present disclosure are as follows:
1. Column: Waters Xbridge C18 150×4.6 mm, 5 μm
2. Mobile Phase: A: 0.1% TFA in H2O • B: 0.1% TFA in Acetonitrile • Gradient: […]
4. Injection Volume: 10 μL
5. Detection wavelength: 230 nm
6. Column Temperature: 40° C.
7. Diluent: 50% Acetonitrile
(§1) Form CS1 in the present disclosure was stored under different conditions of 25° C./60% RH and 40° C./75% RH for 1 month. Samples were taken at the end of 1 month. XRPD and HPLC were used to test the crystalline form and chemical purity. The XRPD overlay is shown in FIG. 14 (Above is the initial sample, in the middle is the sample placed under 25° C./60% RH for 1 month, at the bottom is the sample placed under 40° C./75% RH for 1 month).
as §1, with “CS2” for “CS1”, “The experimental results are summarized in Table 9. the” for “The”, “15” for “14”

[3] = Morphology test by polarized light microscopy (PLM); conditions: PLM image
Description: Form CS1 and Form CS2 in the present disclosure were tested by polarized light microscopy, and the results were depicted in FIG. 16 and FIG. 17. The morphologies of Form CS1 and Form CS2 are needle and block, respectively. Both forms disperse well and have little agglomeration. It can be seen from the PLM images that the morphologies of Form CS1 and Form CS2 in the present disclosure are suitable for the development of drug product.

hygroscopicity class [1] | weight gain [1] [%] | stability (overall conclusion) [2] | Purity ([2]; after 25° C./60% RH (1 month)) [%] | Purity ([2]; after 40° C./75% RH (1 month)) [%] | Initial purity [2] [%] | Crystalline form ([2]; after 25° C./60% RH (1 month)) | Crystalline form ([2]; after 40° C./75% RH (1 month)) | morphology [3] | SMILES
almost non hygroscopic | 0.08 | good stability | 98.21 | 97.76 | 98.02 | unchanged | unchanged | needle | COc1cc2c(cc1OC)[C@H]1C[C@@H](OC(=O)[C@@H](N)C(C)C)[C@H](CC(C)C)CN1CC2 [Form CS1, (S)-2-amino-3-methyl-butyric acid (2R,3R,11bR)-3-isobutyl-9,10-dimethoxy-1,3,4 6,7,11b-hexahydro-2H-pyrido[2,1-a]isoquinolin-2-yl ester]
slightly hygroscopic | 0.56 | good stability | 98.60 | 97.38 | 98.34 | unchanged | unchanged | block | COc1cc2c(cc1OC)[C@H]1C[C@@H](OC(=O)[C@@H](N)C(C)C)[C@H](CC(C)C)CN1CC2 [Form CS2, (S)-2-amino-3-methyl-butyric acid (2R,3R,11bR)-3-isobutyl-9,10-dimethoxy-1,3,4 6,7,11b-hexahydro-2H-pyrido[2,1-a]isoquinolin-2-yl ester]
